Article PMC6272564, “Synthesis and Biological Evaluation of Novel 6-Hydroxy-benzo[d][1,3]oxathiol-2-one Schiff Bases as Potential Anticancer Agents” (Molecules, 2015)

Tests used:
[1] = tested on: ACP-03; test: MTT cytotoxicity assay, ACP-03 gastric cancer cells; format: cell-based, human; conditions: IC50 with 95% confidence interval, triplicate, 72 h incubation
Experimental: (§1) In vitro anticancer activity of compounds 2, 3 and 4a–r was evaluated against three human cancer cell lines in comparison to doxorubicin by using MTT assay.
(§2) Compounds (0.312–20 μM) were tested for cytotoxic activity against three cancer cell lines: ACP-03 (gastric), SKMEL-19 (melanoma) and HCT-116 (colon). All cell lines were maintained in DMEM medium supplemented with 10% fetal bovine serum, 2 mM glutamine, 100 U/mL penicillin, and […] streptomycin at 37 °C with 5% CO2. Each compound was dissolved in DMSO and diluted with water to obtain a concentration of 20 μM. They were incubated with the cells for 72 h. The negative control received the same amount of DMSO (0.005% in the highest concentration). Doxorrubicin was used as a positive control. The cell viability was determined by reduction of the yellow dye 3-(4,5-dimethyl-2-thiazol)-2,5-diphenyl-2H-tetrazolium bromide (MTT) to a blue formazan product after 48 h as described by Mosmann.

[2] = tested on: SKMEL-19; test: MTT cytotoxicity assay, SKMEL-19 melanoma cells; format: cell-based, human; conditions: IC50 with 95% confidence interval, triplicate, 72 h incubation
Experimental: as §1, §2

[3] = tested on: HCT-116; test: MTT cytotoxicity assay, HCT-116 colon cancer cells; format: cell-based; conditions: Homo sapiens, IC50 with 95% confidence interval, triplicate, 72 h incubation
Experimental: as §1, §2

[4] = Cell membrane disruption (hemolysis) of mouse erythrocytes; format: cell-based; conditions: mouse erythrocytes (2% suspension), 2% mouse erythrocyte suspension, room temperature, tested 1.5 to 200 μg/mL, lysis 50% of Triton X-100
Experimental: The mechanical stability of red blood cells is a good parameter for in vitro screening of unspecific cytotoxicity, since the membrane of erythrocyte can suffer significant changes in its structural properties. In order to verify whether the cytotoxicity of the compounds was linked to the membrane disruption, the ability to induce lysis of mouse erythrocytes was investigated, and no membrane damage was found for all tested compounds (EC50 > 200 μg/mL).
The test was performed in 96-well plates using a 2% mouse erythrocyte suspension in 0.85% NaCl containing 10 mM CaCl2. The compounds diluted as mentioned above were tested at concentrations ranging from 1.5 to 200 μg/mL. After incubation at room temperature for 30 min and centrifugation, the supernatant was removed and the liberated hemoglobin was measured spectrophotometrically at 540 nm. DMSO was used as a negative control and Triton X-100 (1%) was used as positive control. EC50 is the calculated effective dose that induced lysis on 50% that of the Triton X-100 [37].

Row | melting point | SMILES | IC50 ([1]; Homo sapiens, 72 h) [µM] | IC50 ([2]; Homo sapiens, SK-MEL19, 72 h) [µM] | IC50 [3] [µM] | EC50 at 30 min [4] [µg/mL] | IC50 [1] [µM] | IC50 [2] [µM]
1 | 284 to 285 °C (dec.) | O=c1oc2cc(O)c(/N=C/c3ccc(O)cc3O)cc2s1 [Compound 4m, (E)-5-(2,4-Dihydroxybenzylideneamino)-6-hydroxybenzo[d][1,3]oxathiol-2-one] | > 10 | 9.4 | > 10 | > 200 |  | 
2 | 194 to 195 °C | Nc1cc2sc(=O)oc2cc1O [Compound 3, 5-Amino-6-hydroxybenzo[d][1,3]oxathiol-2-one] | > 10 | > 10 | > 10 | > 200 |  | 
3 | 261 to 263 °C | N#Cc1ccc(/C=N/c2cc3sc(=O)oc3cc2O)cc1 [Compound 4a, (E)-4-((6-Hydroxy-2-oxobenzo[d][1,3]oxathiol-5-ylimino)methyl)benzonitrile] | > 10 | > 10 | > 10 | > 200 |  | 
4 | 210 to 212 °C | O=c1oc2cc(O)c(/N=C/c3ccc(Cl)cc3)cc2s1 [Compound 4f, (E)-5-(4-Chlorobenzylideneamino)-6-hydroxybenzo[d][1,3]oxathiol-2-one] | > 10 | > 10 | > 10 | > 200 |  | 
5 | 223 to 224 °C | O=c1oc2cc(O)c(/N=C/c3ccc([N+](=O)[O-])cc3)cc2s1 [Compound 4b, (E)-6-Hydroxy-5-(4-nitrobenzylideneamino)benzo[d][1,3]oxathiol-2-one] | < 5 | > 10 | > 10 | > 200 | 4.8 | 
6 | 232 to 233 °C | O=c1oc2cc(O)c(/N=C/c3ccccc3)cc2s1 [Compound 4h, (E)-5-(Benzylideneamino)-6-hydroxybenzo[d][1,3]oxathiol-2-one] | > 10 | > 10 | > 10 | > 200 |  | 
7 | 252 to 253 °C | O=c1oc2cc(O)c(/N=C/c3ccccc3O)cc2s1 [Compound 4k, (E)-6-Hydroxy-5-(2-hydroxybenzylideneamino)benzo[d][1,3]oxathiol-2-one] | > 10 | > 10 | > 10 | > 200 |  | 
8 | 180 to 182 °C | O=c1oc2cc(O)c([N+](=O)[O-])cc2s1 [Compound 2, 6-Hydroxy-5-nitrobenzo[d][1,3]oxathiol-2-one] | > 10 | > 10 | > 10 | > 200 |  | 
9 | 244 to 246 °C | O=c1oc2cc(O)c(/N=C/c3cccc(O)c3O)cc2s1 [Compound 4l, (E)-5-(2,3-Dihydroxybenzylideneamino)-6-hydroxybenzo[d][1,3]oxathiol-2-one] | > 10 | > 10 | > 10 | > 200 |  | 
10 | 201 to 203 °C | O=c1oc2cc(O)c(/N=C/c3ccc(-c4ccccn4)cc3)cc2s1 [Compound 4q, (E)-6-Hydroxy-5-(4-(pyridin-2-yl)benzylideneamino)benzo[d][1,3]oxathiol-2-one] | > 10 | > 10 | > 10 | > 200 |  | 
11 | 199 to 201 °C | CN(C)c1ccc(/C=N/c2cc3sc(=O)oc3cc2O)cc1 [Compound 4i, (E)-5-(4-(Dimethylamino)benzylideneamino)-6-hydroxybenzo[d][1,3]oxathiol-2-one] | > 10 | > 10 | > 10 | > 200 |  | 
12 | 221 to 223 °C | O=c1oc2cc(O)c(/N=C/c3ccc(Cl)cc3Cl)cc2s1 [Compound 4g, (E)-5-(2,4-Dichlorobenzylideneamino)-6-hydroxybenzo[d][1,3]oxathiol-2-one] | > 10 | > 10 | > 10 | > 200 |  | 
13 | 232 to 233 °C | O=c1oc2cc(O)c(/N=C/c3ccc4c(c3)OCO4)cc2s1 [Compound 4r, (E)-5-(Benzo[d][1,3]dioxol-5-ylmethyleneamino)-6-hydroxybenzo[d][1,3]oxathiol-2-one] | > 10 | > 10 | > 10 | > 200 |  | 
14 | 211 to 213 °C | O=c1oc2cc(O)c(/N=C/c3ccc(Br)cc3)cc2s1 [Compound 4d, (E)-5-(4-Bromobenzylideneamino)-6-hydroxybenzo[d][1,3]oxathiol-2-one] | > 10 | > 10 | > 10 | > 200 |  | 
15 | 177 to 178 °C | COc1ccc(/C=N/c2cc3sc(=O)oc3cc2O)cc1 [Compound 4j, (E)-6-Hydroxy-5-(4-methoxybenzylideneamino)benzo[d][1,3]oxathiol-2-one] | > 10 | > 10 | > 10 | > 200 |  | 
16 | 220 to 222 °C | O=c1oc2cc(O)c(/N=C/c3cccc([N+](=O)[O-])c3)cc2s1 [Compound 4c, (E)-6-Hydroxy-5-(3-nitrobenzylideneamino)benzo[d][1,3]oxathiol-2-one] | > 10 | > 10 | > 10 | > 200 |  | 
17 |  | COc1cccc2c1C(=O)c1c(O)c3c(c(O)c1C2=O)C[C@@](O)(C(=O)CO)C[C@@H]3O[C@H]1C[C@H](N)[C@H](O)[C@H](C)O1 [Dox, Doxorubicin, reference compound] | 0.274 | 0.045 | 0.1 | > 200 |  | 
18 | 261 to 263 °C | O=c1oc2cc(O)c(/N=C/c3cc(O)ccc3O)cc2s1 [Compound 4n, (E)-5-(2,5-Dihydroxybenzylideneamino)-6-hydroxybenzo[d][1,3]oxathiol-2-one] | > 10 | 5.6 | > 10 | > 200 |  | 
19 | 293 to 294 °C | O=c1oc2cc(O)c(/N=C/c3cc([N+](=O)[O-])ccc3O)cc2s1 [Compound 4o, (E)-6-Hydroxy-5-(2-hydroxy-5-nitrobenzylideneamino)benzo[d][1,3]oxathiol-2-one] | > 10 | < 5 | > 10 | > 200 |  | 2.8
20 | 179 to 180 °C | O=c1oc2cc(O)c(/N=C/c3cccc(Br)c3)cc2s1 [Compound 4e, (E)-5-(3-Bromobenzylideneamino)-6-hydroxybenzo[d][1,3]oxathiol-2-one] | > 10 | > 10 | > 10 | > 200 |  | 
21 | 250 to 252 °C | O=c1oc2cc(O)c(/N=C/c3cc(Br)ccc3O)cc2s1 [Compound 4p, (E)-5-(5-Bromo-2-hydroxybenzylideneamino)-6-hydroxybenzo[d][1,3]oxathiol-2-one] | > 10 | > 10 | > 10 | > 200 |  | 
